In ChEMBL document CHEMBL1201862, “PubChem BioAssay data set” (2004):
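In this assay, cells in 96-well plates receive the compound at five concentrations for 48 hours. Endpoints are linearly interpolated between the surrounding concentrations. Here, GI50 denotes the concentration required for 50% inhibition of growth.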 The source made the active and inactive calls. No stated cut-off is given here; in the data, active = GI50 up to about 1.1 µM and inactive = higher.

Tests used:
Experiment in all cases: growth of human tumour cells (NCI), 48 h
[1] = test system: BT-549
[2] = test system: PC-3
[3] = test system: K562
[4] = test system: EKVX
[5] = test system: HOP-62
[6] = test system: A498
[7] = test system: MDA-MB-435
[8] = test system: OVCAR-3
[9] = test system: U-251
[10] = test system: DU-145
[11] = test system: HCT-15
[12] = test system: MCF7
[13] = test system: HL-60
[14] = test system: OVCAR-8
[15] = test system: RXF 393
[16] = test system: NCI-H23
[17] = test system: HCC 2998
[18] = test system: UO-31
[19] = test system: SW-620
[20] = test system: SF-295
[21] = test system: 786-0
[22] = test system: COLO 205
[23] = test system: HT-29
[24] = test system: NCI-H226
[25] = test system: TK-10
[26] = test system: CCRF-CEM
[27] = test system: UACC-257
[28] = test system: MOLT-4
[29] = test system: MDA-N
[30] = test system: SF-539
[31] = test system: SR
[32] = test system: T47D
[33] = test system: NCI/ADR-RES
[34] = test system: ACHN
[35] = test system: A549
[36] = test system: SK-MEL-28
[37] = test system: HCT-116
[38] = test system: Malme-3M
[39] = test system: OVCAR-5
[40] = test system: SNB-19
[41] = test system: SN12C
[42] = test system: KM12
[43] = test system: NCI-H460
[44] = test system: SF-268
[45] = test system: RPMI-8226
[46] = test system: M14
[47] = test system: HOP-92
[48] = test system: OVCAR-4
[49] = test system: LOX IMVI
[50] = test system: IGROV-1
[51] = test system: UACC-62
[52] = test system: SK-MEL-2
[53] = test system: SK-MEL-5
[54] = test system: NCI-H522
[55] = test system: MDA-MB-231
[56] = test system: SNB-75
[57] = test system: SK-OV-3
[58] = test system: CAKI-1

Which results are given for Cc1cc(C)c(N[S+]([O-])c2ccc(Cl)cc2)c(C)c1 (stereo not drawn)?
GI50 [1]: > 100 µM (inactive); GI50 [2]: > 100 µM (inactive); GI50 [3]: > 100 µM (inactive); GI50 [4]: > 100 µM (inactive); GI50 [5]: > 100 µM (inactive); GI50 [6]: > 100 µM (inactive); GI50 [7]: 51.5 µM (inactive); GI50 [8]: > 100 µM (inactive); GI50 [9]: > 100 µM (inactive); GI50 [10]: > 100 µM (inactive); GI50 [11]: > 100 µM; GI50 [12]: > 100 µM (inactive); GI50 [13]: > 100 µM (inactive); GI50 [14]: > 100 µM (inactive); GI50 [15]: > 100 µM (inactive); GI50 [16]: > 100 µM (inactive); GI50 [17]: 83.4 µM (inactive); GI50 [18]: > 100 µM (inactive); GI50 [19]: > 100 µM (inactive); GI50 [20]: > 100 µM (inactive); GI50 [21]: > 100 µM (inactive); GI50 [22]: > 100 µM (inactive); GI50 [23]: > 100 µM (inactive); GI50 [24]: > 100 µM (inactive); GI50 [25]: > 100 µM (inactive); GI50 [26]: > 100 µM (inactive); GI50 [27]: > 100 µM (inactive); GI50 [28]: > 100 µM (inactive); GI50 [29]: 71.1 µM (inactive); GI50 [30]: > 100 µM (inactive); GI50 [31]: > 100 µM (inactive); GI50 [32]: > 100 µM (inactive); GI50 [33]: > 100 µM (inactive); GI50 [34]: > 100 µM (inactive); GI50 [35]: > 100 µM (inactive); GI50 [36]: > 100 µM (inactive); GI50 [37]: > 100 µM (inactive); GI50 [38]: > 100 µM (inactive); GI50 [39]: > 100 µM (inactive); GI50 [40]: > 100 µM (inactive); GI50 [41]: > 100 µM (inactive); GI50 [42]: > 100 µM (inactive); GI50 [43]: > 100 µM (inactive); GI50 [44]: > 100 µM (inactive); GI50 [45]: > 100 µM (inactive); GI50 [46]: > 100 µM (inactive); GI50 [47]: 68.7 µM (inactive)

With CC(C)CC(NC(=O)OCc1ccccc1)C(=O)NCCCCC(N)C(=O)NC(CCCCNC(=O)C(CC(C)C)NC(=O)OCc1ccccc1)C(=O)NC(CCCCNC(=O)C(CC(C)C)NC(=O)OCc1ccccc1)C(=O)NC(CCCCNC(=O)C(CC(C)C)NC(=O)OCc1ccccc1)C(=O)NC(CCCCNC(=O)C(CC(C)C)NC(=O)OCc1ccccc1)C(=O)NC(CCCCNC(=O)C(CC(C)C)NC(=O)OCc1ccccc1)C(=O)O (stereo not drawn) as the compound, how does the GI50 [1] read?
Its GI50 is > 100 µM (inactive).

What about the GI50 [2] of the same compound?
The GI50 was > 100 µM (inactive).

And the GI50 [3]?
Its GI50 is > 100 µM (inactive).

What about the GI50 [5] of the same compound?
Its GI50 is > 100 µM (inactive).

What about the GI50 [6] of the same compound?
The GI50 was > 100 µM (inactive).

What about the GI50 [7] of the same compound?
Its GI50 is > 100 µM (inactive).

And the GI50 [8]?
Its GI50 is > 100 µM (inactive).

And the GI50 [9]?
Its GI50 is > 100 µM (inactive).

And the GI50 [48]?
The GI50 was > 100 µM (inactive).

What about the GI50 [10] of the same compound?
The GI50 was > 100 µM (inactive).

What about the GI50 [11] of the same compound?
Its GI50 is greater than 100 µM.

And the GI50 [12]?
The GI50 was > 100 µM (inactive).

And the GI50 [13]?
Its GI50 is > 100 µM (inactive).

And the GI50 [14]?
The GI50 was > 100 µM (inactive).

And the GI50 [16]?
Its GI50 is > 100 µM (inactive).

And the GI50 [17]?
Its GI50 is > 100 µM (inactive).

What about the GI50 [18] of the same compound?
Its GI50 is > 100 µM (inactive).

What about the GI50 [19] of the same compound?
Its GI50 is > 100 µM (inactive).

What about the GI50 [21] of the same compound?
Its GI50 is > 100 µM (inactive).

What about the GI50 [23] of the same compound?
Its GI50 is > 100 µM (inactive).

And the GI50 [24]?
Its GI50 is > 100 µM (inactive).

What about the GI50 [49] of the same compound?
The GI50 was 88.5 µM (inactive).

And the GI50 [25]?
Its GI50 is > 100 µM (inactive).

What about the GI50 [26] of the same compound?
The GI50 was > 100 µM (inactive).

What about the GI50 [50] of the same compound?
Its GI50 is > 100 µM (inactive).

And the GI50 [27]?
The GI50 was > 100 µM (inactive).

And the GI50 [28]?
The GI50 was > 100 µM (inactive).

What about the GI50 [51] of the same compound?
The GI50 was > 100 µM (inactive).

And the GI50 [52]?
Its GI50 is > 100 µM (inactive).

What about the GI50 [29] of the same compound?
Its GI50 is > 100 µM (inactive).

And the GI50 [31]?
The GI50 was > 100 µM (inactive).

What about the GI50 [32] of the same compound?
The GI50 was > 100 µM (inactive).

What about the GI50 [34] of the same compound?
Its GI50 is > 100 µM (inactive).

What about the GI50 [35] of the same compound?
Its GI50 is > 100 µM (inactive).

What about the GI50 [37] of the same compound?
The GI50 was > 100 µM (inactive).

What about the GI50 [53] of the same compound?
The GI50 was > 100 µM (inactive).

What about the GI50 [38] of the same compound?
Its GI50 is > 100 µM (inactive).

What about the GI50 [39] of the same compound?
Its GI50 is > 100 µM (inactive).

What about the GI50 [40] of the same compound?
Its GI50 is > 100 µM (inactive).

What about the GI50 [41] of the same compound?
The GI50 was > 100 µM (inactive).

And the GI50 [54]?
The GI50 was > 100 µM (inactive).

And the GI50 [55]?
Its GI50 is > 100 µM (inactive).

And the GI50 [43]?
The GI50 was > 100 µM (inactive).

And the GI50 [45]?
Its GI50 is > 100 µM (inactive).

With Cc1cc(S(=O)(=O)Nc2nc3cscc3c(=O)n2N)c(S)cc1Cl as the compound, how does the GI50 [1] read?
Its GI50 is 55.1 µM (inactive).

What about the GI50 [56] of the same compound?
Its GI50 is 15 µM (inactive).

What about the GI50 [2] of the same compound?
Its GI50 is 48.8 µM (inactive).

What about the GI50 [3] of the same compound?
Its GI50 is 60.5 µM (inactive).

And the GI50 [4]?
The GI50 was 70.1 µM (inactive).

What about the GI50 [5] of the same compound?
Its GI50 is 49.3 µM (inactive).

What about the GI50 [7] of the same compound?
The GI50 was 56 µM (inactive).

And the GI50 [8]?
The GI50 was 45 µM (inactive).

What about the GI50 [9] of the same compound?
Its GI50 is 37.3 µM (inactive).

And the GI50 [48]?
The GI50 was 39.3 µM (inactive).

What about the GI50 [10] of the same compound?
The GI50 was 40.3 µM (inactive).

And the GI50 [11]?
Its GI50 is 35.2 µM.

What about the GI50 [12] of the same compound?
Its GI50 is 61.5 µM (inactive).

What about the GI50 [13] of the same compound?
Its GI50 is > 100 µM (inactive).

And the GI50 [14]?
The GI50 was 46.2 µM (inactive).

And the GI50 [16]?
Its GI50 is 55.2 µM (inactive).

And the GI50 [17]?
The GI50 was 47.5 µM (inactive).

And the GI50 [57]?
The GI50 was > 100 µM (inactive).

And the GI50 [19]?
The GI50 was 54.7 µM (inactive).

And the GI50 [20]?
The GI50 was 37.9 µM (inactive).

What about the GI50 [21] of the same compound?
The GI50 was 54.6 µM (inactive).

What about the GI50 [22] of the same compound?
The GI50 was > 100 µM (inactive).

And the GI50 [23]?
Its GI50 is 39.6 µM (inactive).

And the GI50 [24]?
Its GI50 is 8.15 µM (inactive).

What about the GI50 [49] of the same compound?
Its GI50 is 36.5 µM (inactive).

And the GI50 [25]?
The GI50 was > 100 µM (inactive).

And the GI50 [26]?
The GI50 was 62.8 µM (inactive).

What about the GI50 [58] of the same compound?
The GI50 was > 100 µM (inactive).

And the GI50 [50]?
The GI50 was 50.7 µM (inactive).

And the GI50 [27]?
Its GI50 is > 100 µM (inactive).

And the GI50 [28]?
The GI50 was 57.3 µM (inactive).

What about the GI50 [51] of the same compound?
The GI50 was 31.9 µM (inactive).

And the GI50 [52]?
The GI50 was 33.4 µM (inactive).

What about the GI50 [29] of the same compound?
Its GI50 is 51.4 µM (inactive).

What about the GI50 [30] of the same compound?
Its GI50 is 34.7 µM (inactive).

And the GI50 [33]?
Its GI50 is 26.3 µM (inactive).

What about the GI50 [34] of the same compound?
Its GI50 is 56.2 µM (inactive).

And the GI50 [35]?
Its GI50 is 28.2 µM (inactive).

And the GI50 [36]?
Its GI50 is 73.3 µM (inactive).

And the GI50 [37]?
The GI50 was 36.7 µM (inactive).

What about the GI50 [53] of the same compound?
Its GI50 is 41 µM (inactive).

What about the GI50 [38] of the same compound?
Its GI50 is 39.4 µM (inactive).

And the GI50 [39]?
Its GI50 is 26.5 µM (inactive).

And the GI50 [40]?
The GI50 was 35.9 µM (inactive).

What about the GI50 [41] of the same compound?
The GI50 was 56.4 µM (inactive).

And the GI50 [54]?
The GI50 was 32.8 µM (inactive).

And the GI50 [55]?
The GI50 was 73.8 µM (inactive).

And the GI50 [42]?
Its GI50 is 39.5 µM (inactive).

And the GI50 [43]?
Its GI50 is 28 µM (inactive).

What about the GI50 [44] of the same compound?
The GI50 was 17.7 µM (inactive).

And the GI50 [45]?
Its GI50 is 96.6 µM (inactive).

What about the GI50 [46] of the same compound?
Its GI50 is 31.9 µM (inactive).
